ChEMBL document CHEMBL1201862, “PubChem BioAssay data set” (2004)
Values belong to the molecule of their own block, whether it stands above or below them. Activity calls are given as the source filed them.

Experiments:
Cytochrome P450 2D6 = Cytochrome P450 2D6 (Homo sapiens, UniProt P10635);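 note: CYP2D6 member of a cytochrome P450 panel assay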
Cytochrome P450 3A4 = Cytochrome P450 3A4 (Homo sapiens, UniProt P08684);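 note: CYP3A4 tested as one member of a cytochrome P450 panel screen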
Coagulation factor XII = Coagulation factor XII (Homo sapiens, UniProt P00748); type: functional;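 note: activated factor XIIa alpha cleaving a fluorogenic AMC peptide substrate; inhibitor potency from loss of enzyme activity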
Chain of Coagulation factor XII (P00748 20-372 limits assumed): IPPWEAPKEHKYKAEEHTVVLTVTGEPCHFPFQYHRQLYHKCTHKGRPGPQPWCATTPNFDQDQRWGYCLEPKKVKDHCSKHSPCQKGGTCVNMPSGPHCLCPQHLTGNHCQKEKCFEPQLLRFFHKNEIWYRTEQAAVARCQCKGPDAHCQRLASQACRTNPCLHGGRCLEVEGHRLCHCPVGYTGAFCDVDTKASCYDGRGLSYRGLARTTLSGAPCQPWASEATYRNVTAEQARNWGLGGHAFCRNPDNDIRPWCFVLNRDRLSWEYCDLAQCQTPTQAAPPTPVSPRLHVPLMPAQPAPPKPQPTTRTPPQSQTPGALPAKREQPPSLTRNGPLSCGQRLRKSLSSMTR
Chain of Coagulation factor XII (P00748 373-615 limits assumed): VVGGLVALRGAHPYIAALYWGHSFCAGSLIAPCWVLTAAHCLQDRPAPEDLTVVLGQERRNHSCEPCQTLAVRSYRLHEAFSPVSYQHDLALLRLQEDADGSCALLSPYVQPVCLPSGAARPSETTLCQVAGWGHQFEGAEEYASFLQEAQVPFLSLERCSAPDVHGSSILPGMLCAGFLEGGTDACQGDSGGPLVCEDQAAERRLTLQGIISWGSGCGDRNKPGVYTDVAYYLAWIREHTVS

[1] = molecular target: Phosphoethanolamine/phosphocholine phosphatase (Homo sapiens, UniProt Q8TCT1); test: SAR assay for compounds that inhibit PHOSPHO1. [Related pubchem assays (depositor defined):AID1545, AID1565, AID1574]
Chain of Phosphoethanolamine/phosphocholine phosphatase (Q8TCT1 whole entry): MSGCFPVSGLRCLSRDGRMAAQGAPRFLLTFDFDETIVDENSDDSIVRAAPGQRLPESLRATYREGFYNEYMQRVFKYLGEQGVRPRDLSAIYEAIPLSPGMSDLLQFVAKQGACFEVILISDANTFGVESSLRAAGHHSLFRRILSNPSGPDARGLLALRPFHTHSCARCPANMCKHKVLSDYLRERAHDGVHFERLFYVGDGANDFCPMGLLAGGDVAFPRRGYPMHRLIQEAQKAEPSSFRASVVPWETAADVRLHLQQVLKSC

Phosphomannomutase 2 = molecular target: T1, Phosphomannomutase 2 (Homo sapiens, UniProt O15305); test: Counter screen SAR assay for PMM2 inhibitors via a fluorescence intensity assay. [Related pubchem assays (depositor defined):AID1545, AID1574]
T1 sequence (O15305 whole entry): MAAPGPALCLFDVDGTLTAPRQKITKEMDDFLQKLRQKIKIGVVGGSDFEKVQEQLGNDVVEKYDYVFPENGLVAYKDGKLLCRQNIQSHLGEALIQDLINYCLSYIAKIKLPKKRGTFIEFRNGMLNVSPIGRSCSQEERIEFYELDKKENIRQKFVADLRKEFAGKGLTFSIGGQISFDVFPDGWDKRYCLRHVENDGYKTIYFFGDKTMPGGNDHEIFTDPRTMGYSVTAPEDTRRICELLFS

[2] = molecular target: T2, Mannose-6-phosphate isomerase (Homo sapiens, UniProt P34949); test: phosphomannose isomerase inhibition – biochemical, fluorescence intensity, confirmation (AID 1535)
T2 sequence (P34949 whole entry): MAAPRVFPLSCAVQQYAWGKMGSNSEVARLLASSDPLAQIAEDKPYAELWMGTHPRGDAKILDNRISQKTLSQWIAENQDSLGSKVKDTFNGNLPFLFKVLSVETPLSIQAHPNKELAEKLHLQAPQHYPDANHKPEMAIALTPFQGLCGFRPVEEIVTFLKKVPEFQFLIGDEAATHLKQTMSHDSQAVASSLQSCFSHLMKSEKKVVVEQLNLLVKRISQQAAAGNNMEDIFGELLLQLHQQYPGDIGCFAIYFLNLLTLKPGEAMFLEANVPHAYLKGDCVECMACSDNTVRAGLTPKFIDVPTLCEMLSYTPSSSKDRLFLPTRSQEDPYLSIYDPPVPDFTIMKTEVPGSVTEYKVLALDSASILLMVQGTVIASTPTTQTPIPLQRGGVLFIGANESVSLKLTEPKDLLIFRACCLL

[3] = molecular target: Kappa-type opioid receptor (Homo sapiens, UniProt P41145); test: SAR analysis of small molecule agonists of the kappa opioid receptor via a luminescent beta-arrestin assay - Set 3. [Related pubchem assays (depositor defined):AID1777, AID1785, AID1786, AID1966, AID2133, AID2136, AID2284, AID2500]; type: functional
Chain of Kappa-type opioid receptor (P41145 whole entry): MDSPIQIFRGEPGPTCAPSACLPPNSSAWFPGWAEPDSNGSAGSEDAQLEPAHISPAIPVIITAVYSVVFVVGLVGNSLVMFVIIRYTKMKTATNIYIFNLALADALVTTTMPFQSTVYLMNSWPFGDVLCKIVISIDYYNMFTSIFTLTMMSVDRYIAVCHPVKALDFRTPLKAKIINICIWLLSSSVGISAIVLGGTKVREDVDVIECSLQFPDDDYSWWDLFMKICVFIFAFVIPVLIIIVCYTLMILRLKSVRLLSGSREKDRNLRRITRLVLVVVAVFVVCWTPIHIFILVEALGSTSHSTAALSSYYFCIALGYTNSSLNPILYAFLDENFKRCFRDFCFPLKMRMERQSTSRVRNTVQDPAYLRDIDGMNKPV

Chain of Cytochrome P450 2D6 (P10635 whole entry): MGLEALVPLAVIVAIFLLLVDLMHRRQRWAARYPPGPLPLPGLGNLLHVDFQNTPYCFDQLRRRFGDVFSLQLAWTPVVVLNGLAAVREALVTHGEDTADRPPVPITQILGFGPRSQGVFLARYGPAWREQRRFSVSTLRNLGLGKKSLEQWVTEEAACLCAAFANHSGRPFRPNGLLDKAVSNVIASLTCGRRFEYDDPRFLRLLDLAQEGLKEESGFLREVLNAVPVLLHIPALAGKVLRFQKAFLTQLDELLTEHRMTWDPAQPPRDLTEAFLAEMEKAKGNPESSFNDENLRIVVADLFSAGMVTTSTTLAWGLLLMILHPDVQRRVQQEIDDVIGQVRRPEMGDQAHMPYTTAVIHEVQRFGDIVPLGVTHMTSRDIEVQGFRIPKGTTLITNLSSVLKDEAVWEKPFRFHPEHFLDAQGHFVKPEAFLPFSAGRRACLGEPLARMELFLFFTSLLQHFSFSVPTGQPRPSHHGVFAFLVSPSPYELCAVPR
Chain of Cytochrome P450 3A4 (P08684 whole entry): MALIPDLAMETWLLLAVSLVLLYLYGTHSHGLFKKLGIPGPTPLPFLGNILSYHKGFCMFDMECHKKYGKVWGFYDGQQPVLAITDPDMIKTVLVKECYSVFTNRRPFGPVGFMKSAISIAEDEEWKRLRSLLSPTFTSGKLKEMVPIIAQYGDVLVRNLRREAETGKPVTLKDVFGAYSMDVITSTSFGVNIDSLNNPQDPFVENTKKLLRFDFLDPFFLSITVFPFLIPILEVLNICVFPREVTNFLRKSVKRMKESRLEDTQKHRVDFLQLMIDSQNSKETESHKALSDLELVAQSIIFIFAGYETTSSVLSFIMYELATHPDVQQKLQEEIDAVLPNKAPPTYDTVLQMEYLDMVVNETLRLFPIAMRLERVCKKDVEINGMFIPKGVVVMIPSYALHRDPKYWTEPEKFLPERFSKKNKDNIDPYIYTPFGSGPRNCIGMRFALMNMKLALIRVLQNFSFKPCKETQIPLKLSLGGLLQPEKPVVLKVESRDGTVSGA

AC50 (Cytochrome P450 2D6): inconclusive
AC50 (Cytochrome P450 3A4): inconclusive
Structure (SMILES): Cc1ccc(CC(=O)N2CC(C)OC(C)C2)cc1 (stereo not drawn)

IC50 (Coagulation factor XII): > 50 µM (inactive)
Structure (SMILES): CN(C)c1ccc(C(=S)N2CCOCC2)cc1 [(4-(DIMETHYLAMINO)PHENYL)(MORPHOLINO)METHANETHIONE]

The remaining lines, values behind:

Structure (SMILES): O=C(Nc1ncnc2sc3c(c12)CCCCC3)c1ccc(F)cc1
IC50 (Coagulation factor XII): > 50 µM (inactive)

Structure (SMILES): CCN(CC)S(=O)(=O)c1ccc(-n2sc3ccccc3c2=O)cc1
IC50 [1]: 6.21 µM (inactive)
IC50 (Phosphomannomutase 2): > 100 µM (inactive)
IC50 [2]: > 50 µM (inactive)

Structure (SMILES): Brc1ccc(-c2nnc(SCc3ccccc3)n2Cc2ccco2)cc1
EC50 [3]: > 20 µM (inactive)
